Results on 10 molecules are retold here after ChEMBL document CHEMBL1201862, “PubChem BioAssay data set” (2004).

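Five concentrations, 48 hours, 96-well plates. GI50 is the concentration that inhibits growth by half.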 Active and inactive are the calls of the source. No stated cut-off is given here; in the data, active = GI50 up to about 1.1 µM and inactive = higher.

Test systems include COLO 205; SF-295; SK-MEL-2; RXF 393; NCI-H522; HL-60; UO-31; M14; RPMI-8226; OVCAR-4; OVCAR-5; SR; MOLT-4; LXFL 529; EKVX; HCC 2998; Malme-3M; NCI-H226; ACHN; U-251.
Holding throughout (assay): NCI-60 cell line screen, 48 h

With `Cc1cc(N(CCC#N)CCC#N)ccc1/C=C(\N=[N+]=[N-])C(=O)NC(=O)COc1ccccc1`, the GI50 with COLO 205 was > 100 µM (inactive); in the assay with SF-295 it was > 61.7 µM (inactive); in the assay on SK-MEL-2 it was > 73.3 µM (inactive); in the assay with RXF 393, > 46.3 µM (inactive); with NCI-H522 it was > 100 µM (inactive); in the assay with HL-60, > 100 µM (inactive). The GI50 in the assay on UO-31, in the assay on M14, with RPMI-8226, in the assay with OVCAR-4, in the assay on OVCAR-5 and in the assay with SR was > 100 µM (inactive) throughout. For the same molecule, the GI50 in the assay with MOLT-4, in the assay with LXFL 529, with EKVX, with HCC 2998, in the assay with Malme-3M and with NCI-H226 was > 100 µM (inactive) in each case. The GI50 in the assay with ACHN is > 100 µM (inactive); in the assay with U-251, > 67.8 µM (inactive).
As for `Cc1cc(NC(=O)NC(=O)c2ccccc2N)ccc1Oc1ncc(Br)cn1`, the GI50 in the assay with COLO 205 is < 0.0104 µM (active); with SF-295, < 0.01 µM (active); with SK-MEL-2, < 0.01 µM (active); in the assay on RXF 393, 0.0244 µM (active); in the assay on NCI-H522, < 0.01 µM (active); in the assay with HL-60, < 0.01 µM (active). Also, the GI50 in the assay on UO-31 is 0.0535 µM (active); in the assay with M14 it was 0.0117 µM (active); with RPMI-8226, 0.025 µM (active); in the assay with OVCAR-4, 4.78 µM (inactive); with OVCAR-5, 0.0396 µM (active); in the assay on SR, < 0.0631 µM (active). Also, the GI50 in the assay on MOLT-4 is < 0.0135 µM (active); with LXFL 529, < 0.0179 µM (active); with EKVX, 0.0826 µM (active); with HCC 2998 it was 0.0154 µM (active); in the assay with Malme-3M, < 0.01 µM (active); in the assay with NCI-H226, 0.0702 µM (active). Moreover, the GI50 is 0.11 µM (active) in the assay with ACHN and 0.0141 µM (active) with U-251.
For `COc1cccc(/C=N\NC(=O)C(C)SC(C)C(=O)N/N=C/c2cccc(OC)c2)c1` (centres undefined), the GI50 with COLO 205 is 24.6 µM (inactive); in the assay with SF-295 it was 32.2 µM (inactive); in the assay on SK-MEL-2, 39.2 µM (inactive); in the assay on RXF 393, 11.1 µM (inactive); in the assay with NCI-H522, 22.3 µM (inactive); in the assay on HL-60, > 62.1 µM (inactive). In addition, the GI50 with UO-31 is 41 µM (inactive); with M14 it was 72.9 µM (inactive); in the assay with RPMI-8226 it was 32.7 µM (inactive); in the assay on OVCAR-4, 16.8 µM (inactive); with OVCAR-5, 53.8 µM (inactive); in the assay with SR, 40.5 µM (inactive). The GI50 in the assay on MOLT-4 was 39.4 µM (inactive); in the assay on LXFL 529, 33.9 µM (inactive); in the assay with EKVX, 27 µM (inactive); with HCC 2998 it was 18.5 µM (inactive); in the assay with Malme-3M, 42 µM (inactive); with NCI-H226, 21.2 µM (inactive). Further, the results for the GI50 in the assay on ACHN and in the assay on U-251 were 18.9 µM (inactive) and 18 µM (inactive), respectively.
For the molecule `N=C(N)N/N=C/c1oc(-c2ccc(S(=O)(=O)O)o2)c(-c2ccc(S(=O)(=O)O)o2)c1[N+](=O)[O-]`, the GI50 with COLO 205, with SF-295, with SK-MEL-2, in the assay with RXF 393, in the assay on NCI-H522 and in the assay with HL-60 was > 100 µM (inactive) in each case. In addition, the GI50 in the assay with UO-31, with M14, in the assay with OVCAR-4, in the assay with OVCAR-5, in the assay with SR and with MOLT-4 was > 100 µM (inactive) throughout. Besides, the GI50 with LXFL 529, with EKVX, with HCC 2998, in the assay on Malme-3M, in the assay with NCI-H226 and with ACHN was > 100 µM (inactive) in each case. The GI50 with U-251 is > 100 µM (inactive).
For the molecule `COC(=O)/C=C(/C(=O)OC)C1(C)c2cc(C(=O)OC)c(C(=O)OC)c(N)c2C(=N)N1c1ccccc1` (centres undefined), the GI50 with COLO 205 was 15.9 µM (inactive); in the assay with SF-295 it was 17.9 µM (inactive); in the assay on SK-MEL-2, 36.7 µM (inactive); in the assay with RXF 393, 17.1 µM (inactive); with NCI-H522, 14.2 µM (inactive); in the assay on HL-60, 14.1 µM (inactive). The GI50 with UO-31 is 22.6 µM (inactive); in the assay with M14 it was 17.5 µM (inactive); with RPMI-8226 it was 21.5 µM (inactive); in the assay with OVCAR-5 it was 41.4 µM (inactive); in the assay on SR, 22.8 µM (inactive); in the assay on MOLT-4 it was 17.8 µM (inactive). The GI50 in the assay with LXFL 529 is 19 µM (inactive); in the assay with EKVX, 27.1 µM (inactive); in the assay with HCC 2998, 16.7 µM (inactive); in the assay on Malme-3M it was 17.4 µM (inactive); in the assay with NCI-H226 it was 36.2 µM (inactive); in the assay with ACHN it was 18 µM (inactive). The GI50 with U-251 is 20.1 µM (inactive).
With `C=C1C(=O)OC2CCCCC3OC3C12` (centres undefined), the GI50 was 3.23 µM (inactive) in the assay with COLO 205; 23.2 µM (inactive) in the assay with SF-295; 12 µM (inactive) in the assay with SK-MEL-2; 13.4 µM (inactive) in the assay on RXF 393; 1.87 µM (inactive) in the assay with NCI-H522; 2.79 µM (inactive) with HL-60. Besides, the GI50 in the assay on UO-31 is 15.4 µM (inactive); with M14, 7.16 µM (inactive); with RPMI-8226, 5.55 µM (inactive); in the assay with OVCAR-4, 14.2 µM (inactive); in the assay with OVCAR-5 it was 18.2 µM (inactive); in the assay with SR, 23 µM (inactive). The GI50 with MOLT-4 is 13.1 µM (inactive); in the assay with LXFL 529, 7.26 µM (inactive); in the assay on EKVX it was 16.9 µM (inactive); with HCC 2998, 11.7 µM (inactive); in the assay on Malme-3M, 10.7 µM (inactive); in the assay on ACHN it was 11 µM (inactive). Also, the GI50 in the assay on U-251 was 10.7 µM (inactive).
As to `CCOC(=O)c1ccc(N[C@@H]2c3cc4c(cc3C(C3=CC(=O)C(=O)C(OC)=C3)[C@H]3C(=O)OCC32)OCO4)cc1` (some centres undefined), the GI50 is 3.21 µM (inactive) in the assay with COLO 205; 1.35 µM (inactive) with SF-295; 2.82 µM (inactive) in the assay on SK-MEL-2; 2.84 µM (inactive) in the assay on RXF 393; 4.61 µM (inactive) in the assay with NCI-H522; 0.802 µM (active) in the assay on HL-60. Further, the GI50 in the assay on UO-31 is 2.52 µM (inactive); in the assay with M14, 2.51 µM (inactive); in the assay with RPMI-8226, 1.06 µM (active); in the assay on OVCAR-4, 24.2 µM (inactive); in the assay on OVCAR-5, 4.88 µM (inactive); in the assay with SR, 0.148 µM (active). Further, the GI50 with MOLT-4 is 0.215 µM (active); in the assay with LXFL 529 it was 6.5 µM (inactive); in the assay with EKVX, 3.73 µM (inactive); with HCC 2998, 4.6 µM (inactive); in the assay with Malme-3M, 2.53 µM (inactive); in the assay on ACHN, 0.9 µM (active). In addition, the GI50 in the assay with U-251 is 0.995 µM (active).
With `CC(C)(C)OC(=O)NC1CCC[C@H]1O` (some centres undefined), the GI50 in the assay on SF-295, in the assay with SK-MEL-2, with RXF 393, with NCI-H522, in the assay with UO-31 and with M14 was > 100 µM (inactive) in each case. Moreover, the GI50 in the assay with OVCAR-4, with OVCAR-5, with SR, in the assay with MOLT-4, with LXFL 529 and in the assay with EKVX was > 100 µM (inactive) each time. In addition, the GI50 in the assay with HCC 2998 is > 100 µM (inactive); with Malme-3M, 0.265 µM (active); with NCI-H226 it was > 100 µM (inactive); in the assay with ACHN, > 100 µM (inactive); with U-251 it was > 100 µM (inactive).
With `COC(=O)CC1CCN(C#N)CC1CC[N+](=O)[O-]` (centres undefined), the GI50 with COLO 205, in the assay on SK-MEL-2, in the assay on RXF 393, in the assay with NCI-H522, with HL-60 and in the assay with UO-31 was > 100 µM (inactive) throughout. In addition, the GI50 in the assay with M14, in the assay with RPMI-8226, in the assay with OVCAR-4, in the assay with SR, in the assay on MOLT-4 and with LXFL 529 was > 100 µM (inactive) in each case. For the same molecule, the GI50 in the assay on HCC 2998, in the assay on Malme-3M, with NCI-H226, in the assay with ACHN and with U-251 was > 100 µM (inactive) in each case.
For `C=C(C)C12CC3CC(/C(=N/O)C(C1)/C3=N\O)[C@@]2(C)O` (some centres undefined), the GI50 in the assay on COLO 205, in the assay with SF-295, in the assay with SK-MEL-2, with RXF 393, in the assay with NCI-H522 and in the assay on HL-60 was > 100 µM (inactive) in each case. Moreover, the GI50 in the assay on UO-31, in the assay on M14, in the assay on RPMI-8226, in the assay on OVCAR-5, with SR and with MOLT-4 was > 100 µM (inactive) throughout. The GI50 with LXFL 529, in the assay with EKVX, in the assay on HCC 2998, in the assay with Malme-3M, with NCI-H226 and in the assay on ACHN was > 100 µM (inactive) throughout. In addition, the GI50 in the assay with U-251 is > 100 µM (inactive).
